Literature values in patent publication US10314922B2, “Trimaleimide linkers and uses thereof” (NewBio Therapeutics, Inc., priority 2015, dated 2019).

System: human carcinoma lines

IC50: 100 to 200 nM
Structure (SMILES): COc1cccc2c1C(=O)c1c(O)c3c(c(O)c1C2=O)C[C@@](O)(C(=O)CO)C[C@@H]3O[C@H]1C[C@H](N)[C@H](O)[C@H](C)O1 [doxorubicin, Doxorubicin]
